Data taken from patent US8846750B2, “Pharmaceutical and food compositions for preventing or treating diabetes or obesity” (Korea Ocean Research and Development Institute, priority 2010, dated 2014).

Key:
[1] = tested on: other protein tyrosine phosphatases (PTPN5, PTPN6, PTPN7, PTPN13); assay: Selectivity for protein tyrosine phosphatases: other phosphatases of the panel; assay type: biochemical; conditions: for inhibitory activity against other protein tyrosine phosphatases: 0, 50, 100 or 200 nM tested; for selectivity among protein tyrosine phosphatases: PTP-1b, PTPN2, PTPN5, PTPN6, PTPN7 and PTPN13
Method: In order to examine the selectivity of sodium lobarate for protein tyrosine phosphatases, the inhibitory activities of sodium lobarate against PTP-1b, PTPN2, PTPN5, PTPN6, PTPN7 and PTPN13 were examined by spectroscopically measuring the activities of the enzymes.
(§1) Specifically, to 0.5 mg/Ml of PTP-1b, PTPN2, PTPN5, PTPN6, PTPN7 or PTPN13 (Bioneer, Korea) in protein tyrosine phosphatase buffer (20 mM Tris-Hcl, pH 8.0, 0.75 mM NaCl, 0.5 mM EDTA, 5 mM β-mercaptoethanol, 50% glycerol), 0, 50, 100 or 200 nM sodium lobarate and the substrate [pTyr1146] insulin receptor (1142-1153, Sigma, USA) were added. Then, each of the mixtures was allowed to react at room temperature for 10-30 minutes, and then malachite green-molybdate dye solution (Sigma, USA) was added thereto and reacted at room temperature for 10 minutes. After completion of the reaction with the substrate, the absorbance at 620 nm was measured.
In order to examine the selectivity of Lobarin for protein tyrosine phosphatases, the inhibitory activities of Lobarin against PTP-1b, PTPN2, PTPN5, PTPN6, PTPN7 and PTPN13 were examined by spectroscopically measuring the activities of the enzymes.
as §1, with “Lobarin” for “sodium lobarate”
as §1, with “In order to examine the selectivity of Lobarstin for protein tyrosine phosphatases, the inhibitory activities of Lobarstin against PTP-1b, PTPN2, PTPN5, PTPN6, PTPN7 and PTPN13 were examined by spectroscopically measuring the activities of the enzymes. Specifically,” for “Specifically,”, “Lobarstin” for “sodium lobarate”

[2] = tested on: db/db mice (type 2 diabetic model animals); assay: Intraperitoneal glucose tolerance test (IPGTT) 28 days after intraperitoneal administration; assay type: in vivo; conditions: 10 mg/kg i.p. for 28 days; for blood glucose level after injection of glucose (IPGTT): fasted 16 hours; for course of blood glucose level in IPGTT: versus control group
Method: An intraperitoneal glucose tolerance test (IPGTT) in the animal model of sodium lobarate was performed in the following manner.
To 7-week-old male db/db mice (type 2 diabetic model animals, C57/BLKS/J-db/db, the Korea Research Institute of Bioscience and Biotechnology), physiological saline for a control group and 10 mg/kg of sodium lobarate for a test group was injected, respectively, intraperitoneally every day for 28 days. Then, the animals were fasted for 16 hours without administering physiological saline or sodium lobarate, after which glucose (500 mg/Ml; injection volume of […]) was injected intraperitoneally into the animals. 0, 15, 30, 60, 90 and 120 min after injection of glucose, blood was sampled from the tail vein, and the changes in the blood glucose levels of the samples were measured. […]
(§2) To 7-week-old male db/db mice (type 2 diabetic model animals, C57/BLKS/J-db/db, the Korea Research Institute of Bioscience and Biotechnology), 20% DMSO for a control group and 10 mg/kg of Lobarin for a test group was injected, respectively, intraperitoneally every day for 28 days. Then, the animals were fasted for 16 hours without administering 20% DMSO or Lobarin for each group, after which glucose (500 mg/Ml; injection volume of 200 μl) was injected intraperitoneally into the animals. 0, 15, 30, 60, 90 and 120 min after injection of glucose, blood was sampled from the tail vein, and the changes in the blood glucose levels of the samples were measured.
as §2, with “Lobarstin” for “Lobarin”, “physiological saline and Lobarstin,” for “20% DMSO or Lobarin for each group,”

Structure (SMILES)	inhibitory activity against other protein tyrosine phosphatases [1]	selectivity among protein tyrosine phosphatases [1]	blood glucose level after injection of glucose (IPGTT) ([2]; 0 min)	course of blood glucose level in IPGTT [2]	blood glucose level after injection of glucose (IPGTT) ([2]; 15 min)	blood glucose level after injection of glucose (IPGTT) ([2]; 30 min)	blood glucose level after injection of glucose (IPGTT) ([2]; 60 min)	blood glucose level after injection of glucose (IPGTT) ([2]; 90 min)	blood glucose level after injection of glucose (IPGTT) ([2]; 120 min)
CCCCCc1c(Oc2cc(OC)cc3c2C(=O)OC3(O)CCCC)c(O)cc(O)c1C(=O)O (centres unmarked) [Lobarin]	no inhibitory activity	acts selectively only on PTP-1b	153 mg/dL	a low increase and a fast decrease in the blood glucose level	358 mg/dL	436 mg/dL	390 mg/dL	335 mg/dL	290 mg/dL
CCC/C=C1/OC(=O)c2c(Oc3c(O)cc(O)c(C(=O)O)c3CCCCC)cc(OC)cc21 [Lobarstin]	no inhibitory activity	acts selectively only on PTP-1b	152 mg/dL	a low increase and a fast decrease in the blood glucose level	229 mg/dL	307 mg/dL	205 mg/dL	162 mg/dL	147 mg/dL
CCCCCc1c2c(cc(O)c1C(=O)[O-])OC(=O)c1c(cc(OC)cc1C(=O)CCCC)O2.[Na+] [sodium lobarate]		acts selectively only on PTP-1b	153 mg/dL	a low increase and a fast decrease in the blood glucose level	291 mg/dL	361 mg/dL	385 mg/dL	335 mg/dL	290 mg/dL
